Experimental data reported in PubChem BioAssay AID330 (DTP/NCI, 2004).
Several values for one entry are separate records, joined by “and”; a condition that tells them apart may be missing. Equal values may be shown once. Inconclusive results and toxic doses are left out.

System: P388 leukemia ip, CD2F1 mice, survival T/C
Assay: NCI In Vivo Anticancer Drug Screen. Data for tumor model P388 Leukemia (intraperitoneal) in CD2F1 (CDF1) mice
Details: endpoint: median survival time, higher = longer survival
How it was run: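 Mice carrying the transplanted tumor received test compound or vehicle. Survival was recorded in each group, and the value is the treated-group measurement divided by that of the vehicle-treated control group.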

[1] = dose: 50.0 mg/kg/injection, schedule: Q01DX005 (ip), vehicle: saline with Tween-80
[2] = dose: 100.0 mg/kg/injection, schedule: Q01DX005 (ip), vehicle: saline with Tween-80
[3] = dose: 200.0 mg/kg/injection, schedule: Q01DX005 (ip), vehicle: saline with Tween-80
[4] = dose: 50.0 mg/kg/injection, schedule: Q01DX009 (ip), vehicle: Klucel (hydroxypropylcellulose) (HPC)
[5] = dose: 100.0 mg/kg/injection, schedule: Q01DX009 (ip), vehicle: Klucel (hydroxypropylcellulose) (HPC)
[6] = dose: 200.0 mg/kg/injection, schedule: Q01DX009 (ip), vehicle: Klucel (hydroxypropylcellulose) (HPC)
[7] = dose: 400.0 mg/kg/injection, schedule: Q01DX009 (ip), vehicle: Klucel (hydroxypropylcellulose) (HPC)
[8] = dose: 50.0 mg/kg/injection, schedule: Q01DX009 (ip), vehicle: saline with Tween-80
[9] = dose: 100.0 mg/kg/injection, schedule: Q01DX009 (ip), vehicle: saline with Tween-80
[10] = dose: 200.0 mg/kg/injection, schedule: Q01DX009 (ip), vehicle: saline with Tween-80
[11] = dose: 50.0 mg/kg/injection, schedule: Q01DX009 (ip), vehicle: saline
[12] = dose: 100.0 mg/kg/injection, schedule: Q01DX009 (ip), vehicle: saline
[13] = dose: 200.0 mg/kg/injection, schedule: Q01DX009 (ip), vehicle: saline
[14] = dose: 60.0 mg/kg/injection, schedule: Q01DX005 (ip), vehicle: Klucel (hydroxypropylcellulose) (HPC)
[15] = dose: 120.0 mg/kg/injection, schedule: Q01DX005 (ip), vehicle: Klucel (hydroxypropylcellulose) (HPC)
[16] = dose: 50.0 mg/kg/injection, schedule: Q01DX005 (ip), vehicle: Klucel (hydroxypropylcellulose) (HPC)
[17] = dose: 100.0 mg/kg/injection, schedule: Q01DX005 (ip), vehicle: Klucel (hydroxypropylcellulose) (HPC)
[18] = dose: 200.0 mg/kg/injection, schedule: Q01DX005 (ip), vehicle: Klucel (hydroxypropylcellulose) (HPC)

## Nc1ncnc2c1ncn2CC(O)CN(CCO)CCO (stereo not given)
dose: 60.0 mg/kg/injection, schedule: Q01DX005 (ip), vehicle: saline
  T/C: 97 % of control
dose: 120.0 mg/kg/injection, schedule: Q01DX005 (ip), vehicle: saline
  T/C: 95 % of control
dose: 240.0 mg/kg/injection, schedule: Q01DX005 (ip), vehicle: saline
  T/C: 96 % of control

## CC[n+]1c([S-])nn(C)c1-c1cnccn1
[1]
  T/C: 106 % of control
[2]
  T/C: 108 % of control
[3]
  T/C: 102 % of control

## CCN(CC)CCNc1ccc(COC(=O)OC)c2sc3ccccc3c(=O)c12
dose: 2.5 mg/kg/injection, schedule: Q01DX005 (ip), vehicle: saline with Tween-80
  T/C: 118 % of control
dose: 5.0 mg/kg/injection, schedule: Q01DX005 (ip), vehicle: saline with Tween-80
  T/C: 124 % of control
dose: 6.25 mg/kg/injection, schedule: Q01DX005 (ip), vehicle: saline with Tween-80
  T/C: 120 % of control
dose: 10.0 mg/kg/injection, schedule: Q01DX005 (ip), vehicle: saline with Tween-80
  T/C: 124 % of control
dose: 12.5 mg/kg/injection, schedule: Q01DX005 (ip), vehicle: saline with Tween-80
  T/C: 111 % of control
dose: 20.0 mg/kg/injection, schedule: Q01DX005 (ip), vehicle: saline with Tween-80
  T/C: 122 % of control

## COc1ccc(B(C)N2CCCCC2C)cc1 (stereo not given)
[1]
  T/C: 102 % of control
[2]
  T/C: 100 % of control
[3]
  T/C: 98 % of control

## C[C@H](CCC(=O)O)[C@H]1CC[C@H]2[C@@H]3[C@H](O)C[C@@H]4C[C@H](O)CC[C@]4(C)[C@H]3C[C@H](O)[C@]12C (tested in a mixture with another compound)
dose: 75.0 mg/kg/injection, schedule: Q01DX009 (ip), vehicle: saline sonified
  T/C: 104 % of control
dose: 300.0 mg/kg/injection, schedule: Q01DX009 (ip), vehicle: saline sonified
  T/C: 163 % of control

## CNCCc1c(C2C3C(C=C(C)CC3(C)C)c3c(CCNC)c4ccccc4n32)[nH]c2ccccc12 (stereo not given)
dose: 4.0 mg/kg/injection, schedule: Q01DX009 (ip), vehicle: saline
  T/C: 107 % of control
dose: 8.0 mg/kg/injection, schedule: Q01DX009 (ip), vehicle: saline
  T/C: 110 % of control
dose: 16.0 mg/kg/injection, schedule: Q01DX009 (ip), vehicle: saline
  T/C: 115 % of control
dose: 32.0 mg/kg/injection, schedule: Q01DX009 (ip), vehicle: saline
  T/C: 114 % of control

## NC1=NC2C(Cl)=CC=CC2S1 (stereo not given)
[4]
  T/C: 109 % of control
[5]
  T/C: 107 % of control

## Cn1c2ccccc2c(=O)c2ccc(Cl)cc21
dose: 25.0 mg/kg/injection, schedule: Q01DX009 (ip), vehicle: Klucel (hydroxypropylcellulose) (HPC)
  T/C: 117 % of control
[4]
  T/C: 111 % of control
[5]
  T/C: 114 % of control
[6]
  T/C: 88 % of control
[7]
  T/C: 104 % of control

## CCOC(=O)c1c(C)c(-c2ccccc2)c(-c2ccccc2)c(C)c1-c1ccccc1
[8]
  T/C: 97 % of control
[9]
  T/C: 100 % of control
[10]
  T/C: 92 % of control

## CC(C)CC1NC(=O)C2N=C(OC2C)C2CSSCC(NC(=O)c3csc1n3)C1=NC(C(=O)NC(CC(C)C)c3nc(cs3)C(=O)N2)C(C)O1 (stereo not given)
dose: 0.2 mg/kg/injection, schedule: Q01DX005 (ip), vehicle: DMSO
  T/C: 97 % of control
dose: 0.4 mg/kg/injection, schedule: Q01DX005 (ip), vehicle: DMSO
  T/C: 96 % of control
dose: 0.8 mg/kg/injection, schedule: Q01DX005 (ip), vehicle: DMSO
  T/C: 90 % of control
dose: 1.5 mg/kg/injection, schedule: Q01DX005 (ip), vehicle: DMSO
  T/C: 97 % of control

## OCC1OC2OCCOC2OC1CO (stereo not given)
dose: 100.0 mg/kg/injection, schedule: Q01DX001 (ip), vehicle: saline
  T/C: 102 % of control
dose: 200.0 mg/kg/injection, schedule: Q01DX001 (ip), vehicle: saline
  T/C: 96 % of control
dose: 400.0 mg/kg/injection, schedule: Q01DX001 (ip), vehicle: saline
  T/C: 102 % of control

## COc1ccc(NC(=O)Nc2ccc(-c3ccc(NC(=O)Nc4ccc(OC)cc4)c(C)c3)cc2C)cc1
dose: 25.0 mg/kg/injection, schedule: Q01DX005 (ip), vehicle: saline with Tween-80
  T/C: 100 % of control
[1]
  T/C: 87 % of control and 94 % of control
[2]
  T/C: 91 % of control
[3]
  T/C: 90 % of control

## CC(C)(C)C1CO1 (stereo not given)
dose: 50.0 mg/kg/injection, schedule: Q01DX005 (ip), vehicle: saline
  T/C: 103 % of control
dose: 100.0 mg/kg/injection, schedule: Q01DX005 (ip), vehicle: saline
  T/C: 108 % of control
dose: 200.0 mg/kg/injection, schedule: Q01DX005 (ip), vehicle: saline
  T/C: 110 % of control

## CC1=NN(c2ccccc2)C(=O)C1N=Nc1cc([N+](=O)[O-])cc(S(=O)(=O)O)c1O.CC1=NN(c2ccccc2)C(=O)C1N=Nc1cc([N+](=O)[O-])cc(S(=O)(=O)O)c1O.[Cr] (stereo not given)
dose: 25.0 mg/kg/injection, schedule: Q01DX009 (ip), vehicle: saline
  T/C: 106 % of control and 108 % of control
[11]
  T/C: 111 % of control and 112 % of control and 115 % of control
[12]
  T/C: 119 % of control and 124 % of control (2×)
[13]
  T/C: 101 % of control and 103 % of control and 115 % of control

## CC(=O)NCCNC(Cc1ccccc1)C(=O)O (stereo not given)
dose: 25.0 mg/kg/injection, schedule: Q01DX001 (ip), vehicle: Klucel (hydroxypropylcellulose) (HPC)
  T/C: 108 % of control
dose: 50.0 mg/kg/injection, schedule: Q01DX001 (ip), vehicle: Klucel (hydroxypropylcellulose) (HPC)
  T/C: 101 % of control
dose: 100.0 mg/kg/injection, schedule: Q01DX001 (ip), vehicle: Klucel (hydroxypropylcellulose) (HPC)
  T/C: 100 % of control and 101 % of control

## CCCCCc1cc(O)c2c3c(c(=O)oc2c1)CP(=O)(c1ccccc1)CC3 (stereo not given)
dose: 100.0 mg/kg/injection, schedule: Q01DX001 (ip), vehicle: saline with Tween-80
  T/C: 102 % of control
dose: 200.0 mg/kg/injection, schedule: Q01DX001 (ip), vehicle: saline with Tween-80
  T/C: 98 % of control
dose: 400.0 mg/kg/injection, schedule: Q01DX001 (ip), vehicle: saline with Tween-80
  T/C: 90 % of control

## Cc1cccc(NC(=O)Nc2ccc(F)cc2)n1
[14]
  T/C: 101 % of control
[15]
  T/C: 96 % of control
dose: 240.0 mg/kg/injection, schedule: Q01DX005 (ip), vehicle: Klucel (hydroxypropylcellulose) (HPC)
  T/C: 100 % of control

## CCCS(=O)(=O)N/N=C(\C)c1cccs1
[4]
  T/C: 95 % of control
[5]
  T/C: 87 % of control

## O=C=Nc1ccc(Cc2ccc(N=C=O)cc2)cc1
[5]
  T/C: 103 % of control
[6]
  T/C: 98 % of control
[7]
  T/C: 93 % of control

## CC(=O)c1cccc(OC(=O)Nc2ccccc2)c1
[1]
  T/C: 96 % of control
[2]
  T/C: 90 % of control
[3]
  T/C: 98 % of control

## CC(=O)Nc1cc2cc(NS(=O)(=O)c3ccc(Cl)c(Cl)c3)ccc2oc1=O
[16]
  T/C: 89 % of control
[17]
  T/C: 93 % of control
[18]
  T/C: 95 % of control

## O=C1c2c(-c3ccccc3)ccc(-c3ccccc3)c2C2(O)OC1(O)c1c(-c3ccccc3)ccc(-c3ccccc3)c1C2=O
[16]
  T/C: 94 % of control
[17]
  T/C: 90 % of control
[18]
  T/C: 92 % of control

## COc1ccccc1N=C1SCC(=O)N1Cc1ccco1
[8]
  T/C: 95 % of control
[9]
  T/C: 95 % of control
[10]
  T/C: 92 % of control

## O=C1c2ccccc2C(=O)c2c1cn1c2Cc2ccccc2C1
dose: 30.0 mg/kg/injection, schedule: Q01DX005 (ip), vehicle: Klucel (hydroxypropylcellulose) (HPC)
  T/C: 103 % of control and 97 % of control
[14]
  T/C: 113 % of control and 94 % of control
[15]
  T/C: 103 % of control and 113 % of control and 96 % of control
dose: 0.25 ml/mouse/injection, schedule: Q01DX005 (ip), vehicle: other
  T/C: 107 % of control
dose: 0.5 ml/mouse/injection, schedule: Q01DX005 (ip), vehicle: other
  T/C: 106 % of control

## Nc1nc(N)c(CCc2ccccc2)c(N)n1
dose: 12.5 mg/kg/injection, schedule: Q01DX005 (ip), vehicle: Klucel (hydroxypropylcellulose) (HPC)
  T/C: 97 % of control
dose: 25.0 mg/kg/injection, schedule: Q01DX005 (ip), vehicle: Klucel (hydroxypropylcellulose) (HPC)
  T/C: 103 % of control
[16]
  T/C: 92 % of control and 97 % of control

## O=CNc1cccnc1C1OCCO1
[16]
  T/C: 98 % of control
[17]
  T/C: 102 % of control
[18]
  T/C: 102 % of control

## O=Cc1ccc([N+](=O)[O-])s1
[11]
  T/C: 120 % of control

## CCOC(=O)COc1ccc2c(=O)c(C)c(-c3ccccc3)oc2c1
[11]
  T/C: 97 % of control
[12]
  T/C: 101 % of control
[13]
  T/C: 97 % of control
